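Interpolation was linear, between the two tested concentrations surrounding the appropriate level; five concentrations were tested over 48 hours in 96-well plates. Abbreviation: GI50, concentration required for 50% inhibition of growth. TGI: total growth inhibition.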

The text below walks through data of PubChem BioAssay (NCI).

Common to all, as to assay: growth of human tumour cells (NCI), 48 h
Experiment [1] has as its system T-47D breast.
Experiment [2] relates to NCI-H23 lung.
Experiment [3] concerns MCF7 breast.
Experiment [4] relates to BT-549 breast.
For experiment [5], the system named is LOX IMVI melanoma.
Experiment [6] deals with K-562 leukemia.
Experiment [7] has as its system HCC-2998 colon.
Experiment [8] relates to MDA-MB-231 breast.
The test system of experiment [9] is SK-OV-3 ovarian.
Experiment [10] relates to EKVX NSCLC.

Regarding `CCCCCCNC(=O)Oc1ccc(/C(=C(/C)Cc2ccc(OC)cc2)c2ccc(OCCCN(C)C)cc2)cc1`, the GI50 in experiment [1] is 11.3 µM; in experiment [2], 15.1 µM; in experiment [3], 1120 nM; in experiment [4], 15.6 µM; in experiment [5], 2.61 µM; in [6] it was 3.74 µM. Further, the GI50 in [7] was 14.6 µM; in [8], 15.3 µM; in experiment [9], 16.7 µM; in [10], 13.2 µM. Besides, the TGI in [1] is 27.3 µM; in experiment [2], 29.9 µM; in experiment [3], 17.1 µM; in experiment [4] it was 30.3 µM; in experiment [5], 15.6 µM; in experiment [6], 19.1 µM. The TGI in [7] came out at 29.2 µM; in experiment [8], 29.9 µM; in experiment [9] it was 30.9 µM; in experiment [10], 27.5 µM.
In the case of `N[C@@H]1C(=O)N2C(C(=O)OC(c3ccccc3)c3ccccc3)=C(CCl)CS[C@H]12`, the GI50 in [1] was 46 µM; in [2], 95.6 µM; in [3], 33600 nM; in experiment [4] it was 25.4 µM; in [5] it was 24.9 µM; in [6], 15.4 µM. The GI50 was 43 µM in [7], 25.2 µM in experiment [8], greater than 100 µM in experiment [9] and 60.1 µM in [10]. For the same compound, the TGI in [1] is greater than 100 µM; in experiment [2] it was greater than 100 µM; in experiment [3], greater than 100 µM; in experiment [4], 62.8 µM; in experiment [5], 65 µM; in experiment [6], greater than 89.2 µM. Besides, the TGI in experiment [7] was greater than 100 µM; in experiment [8], 63.1 µM; in experiment [9] it was greater than 100 µM; in experiment [10], greater than 100 µM.
As to `COc1ccc2c(C3(c4cn(C)c5cc(OC)ccc45)C(=O)Nc4ccc(Cl)cc43)cn(C)c2c1`, the GI50 in experiment [1] was 3.89 µM; in experiment [2], 3.99 µM; in experiment [3], 3090 nM; in experiment [4], 5.26 µM; in experiment [5] it was 3.4 µM; in experiment [6], 3.38 µM. In addition, the GI50 in experiment [7] was 6.35 µM; in [8] it was 1.53 µM; in experiment [9], 5.07 µM; in [10], 2.6 µM. In addition, the TGI in [1] was greater than 100 µM; in experiment [2] it was greater than 100 µM; in [3], greater than 100 µM; in [4], 83.4 µM; in experiment [5], 21.9 µM; in experiment [6] it was greater than 100 µM. The TGI in experiment [7] was greater than 100 µM; in experiment [8], 5.1 µM; in experiment [9], greater than 100 µM; in [10], greater than 100 µM.
`CC1=CC(=O)C(C(C)C)=CC1=Nc1cc(Br)c(O)c(Br)c1`: the GI50 in experiment [1] is 5.74 µM; in experiment [2] it was 4.26 µM; in experiment [3] it was 4270 nM; in experiment [4], 1.69 µM; in experiment [5], 5.04 µM; in experiment [6], 3.92 µM. In addition, the GI50 in experiment [7] was 3.56 µM; in experiment [8], 3.65 µM; in experiment [9], 3.45 µM; in [10], 4.51 µM. Besides, the TGI in experiment [1] was found to be 21.2 µM; in experiment [2], 26.1 µM; in experiment [3] it was 17.7 µM; in experiment [4] it was 5.64 µM; in experiment [5], 20.4 µM; in experiment [6], 13.4 µM. Besides, the TGI in experiment [7] amounted to 13 µM; in [8] it was 12.9 µM; in [9] it was 15.9 µM; in experiment [10], 36 µM.
Consider `Cc1ccc(C(NC(=O)c2ccccc2)c2ccc3cccnc3c2O)cc1` (centres undefined), for which the GI50 was 0.478 µM in [1]; 0.417 µM in experiment [2]; 365 nM in experiment [3]; 0.524 µM in experiment [4]; 0.15 µM in experiment [5]; 0.349 µM in [6]. The GI50 in [7] is 0.331 µM; in experiment [8], 0.315 µM; in experiment [9] it was 0.474 µM; in [10] it was 0.357 µM. Moreover, the TGI was 27.7 µM in [1]; greater than 32.5 µM in [2]; greater than 47.3 µM in [3]; greater than 40.6 µM in experiment [4]; 90 µM in experiment [6]; 18.5 µM in [7]. The values for the TGI in experiment [8], in experiment [9] and in experiment [10] were 22.4 µM, 30.7 µM and 53.5 µM, respectively.
As to `Cc1cn(C2C=CC(CO)O2)c(=O)[nH]c1=O` (centres undefined), the TGI in experiment [1], in experiment [2], in experiment [3], in experiment [4], in experiment [5] and in experiment [6] was greater than 1000 µM in each case. Also, the TGI in experiment [7], in experiment [8], in [9] and in experiment [10] was greater than 1000 µM each time.
`COc1ccc(/C=c2\sc3n(c2=O)C2C(NN=3)N(C)C(=O)N2C)cc1` (centres undefined): the GI50 in [1] was 1.56 µM; in [2], 1.75 µM; in experiment [3], 384 nM; in experiment [4] it was 0.589 µM; in experiment [5], 1.63 µM; in [6], 0.331 µM. Further, the GI50 in experiment [7] was 1.5 µM; in experiment [8], 2.77 µM; in experiment [9], 2.13 µM; in experiment [10] it was 1.72 µM. Also, the TGI in [1], in experiment [2], in experiment [3], in [4], in experiment [5] and in [6] was greater than 100 µM each time. Besides, the TGI in experiment [7], in experiment [8], in experiment [9] and in experiment [10] was greater than 100 µM throughout.
